Data on one compound can be found in patent US8338414B2, “Immunosuppressive agent and anti-tumor agent comprising heterocyclic compound as active ingredient” (Zenyaku Kogyo KabushikiKaisha, priority 2005, dated 2012).

Assay [1] has as its system Daudi cells. Kind of assay: Therapeutic action on human B lymphoma xenografted model. Format: in vivo, mouse. The following applies: NOD/SCID mice, Daudi subcutaneous, 400 mg/kg oral after day 20. The procedure: Daudi cells (1×10^7 cells/mL) cultured in RPMI 1640 medium (containing 10% fetal bovine serum, 10 mM HEPES, 1 mM pyruvic acid, 4.5 g/L glucose, 100 units/mL penicillin, and 0.1 mg/mL streptomycin) were implanted subcutaneously in the chests of 8 week-old NOD/SCID mice. After day 20 when the tumor had grown to the volume of about 800 mm^3, Compound 4 (400 mg/kg) was administered orally.
On the technique in general: In xenograft studies the graft and the host belong to different species.

Assay [2] has as its system human peripheral blood mononuclear cells. Nature of the assay: Activation inhibition assay for human peripheral blood mononuclear cells (CD40L, CD69 expression). The following applies: PBMC, anti-CD3 + anti-CD28, 6 hours, flow cytometry. The class given is cell-based. The procedure: In accordance with the method of Assay Example 2, PBMC (2×10^6 cells/mL) was isolated from human peripheral blood, suspended in RPMI 1640 medium (containing 10% fetal bovine serum, 10 mM HEPES, 1 mM pyruvic acid, and 4.5 g/L glucose), and seeded in wells of a 96 well plate at 0.225 mL per well. The test substances were added to respective wells, and then an anti-CD3 antibody (2 μg/mL) and an anti-CD28 antibody (1 μg/mL) were added. Then, after incubation under conditions of carbon dioxide 5% at a temperature 37° C. for 6 hours, the expressions of CD40L and CD69, activation markers, were analysed by flow cytometry. As a result, when the cells were stimulated by both an anti-CD3 antibody and an anti-CD28 antibody, CD40L was expressed on 14.4% of PBMC, which was also CD4 positive. However, the proportion of the cells which expressed CD40L decreased when the cells had been treated with test substances (Compound 4: 4.9%; Compound 20: 3.7%, Compound 24: 3.6%).
On the technique in general: In flow cytometry, cells or beads pass a laser one at a time.

Assay [3] has as its system HL 60 cells. Nature of the assay: Proliferation inhibitory activity on hematologic neoplasm cells, HL60. Format: cell-based. The following applies: Homo sapiens, HL-60, 72 h; 3 days, Alamar Blue. (Alamar Blue is a resazurin reagent that responds to reducing activity.)
The test system of assay [4] is mouse spleen cells. Kind of assay: Proliferation inhibition assay for mouse spleen cells. The following applies: 72 h, 3 days, Alamar Blue. Format: cell-based. The method in brief: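 C57BL/6N female mouse spleen cells (2×10^6 cells/mL) stimulated with Con A (3 μg/mL), LPS (100 μg/mL) or anti-mouse IgM (100 μg/mL) alongside serially diluted compounds, 3 days at 37° C, 5% CO2. Alamar Blue added for a further day; fluorescence read at ex 530/em 590 nm.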

Read-outs that look alike come from different tables or passages of the source.

In the case of `FC(F)c1nc2ccccc2n1-c1nc(N2CCOCC2)nc(N2CCOCC2)n1` [Compound 4, 2-(2-Difluoromethylbenzimidazol-1-yl)-4,6-dimorpholino-1,3,5-triazine], the “increase in tumor volume” value in assay [1] is listed as “inhibited”. Moreover, the “proportion of the cells which expressed CD40L” value in assay [2] (CD4 positive, 14.4% without test substance) is 4.9%. For the same compound, the “proportion of CD4-positive cells which expressed CD69” value in assay [2] (28.8% without test substance) is on record as 18.8%. For the same compound, the “proportion of CD4-negative cells which expressed CD69” value in assay [2] (50.9% without test substance) worked out at 17.7%. The IC50 was 1120 nM in assay [3]; 1 to 100 nM in assay [4] (LPS 100 μg/mL, read-out: Inhibition of LPS response); 1 to 100 nM in assay [4] (anti-mouse IgM antibody 100 μg/mL, read-out: Inhibition of Anti-IgM antibody response); 1 to 100 nM in assay [4] (concanavalin A 3 μg/mL, read-out: Inhibition of Con A response).
